Laboratory results published in patent publication US20140275094A1, “METHOD FOR TREATING PULMONARY ARTERIAL HYPERTENSION IN A PATIENT NOT HAVING IDIOPATHIC PULMONARY FIBROSIS” (GILEAD SCIENCES, INC., priority 2012, published 2014).
Blank lines part the entries; values can stand above or below the compound they belong to.

Tests used:
[1] = MGPS disproportionality analysis of FDA AERS spontaneous reports of hepatic events; set-up: species or system human; key to EBGM: ratio of observed to expected reports (independence assumption); details: for Count / EBGM: FDA AERS, 18 months post approval; for EB05: lower bound of 90% confidence interval of EBGM
Protocol: A disproportionality analysis was performed for ambrisentan and bosentan using information from the FDA Adverse Events Reporting System (AERS) spontaneous reporting database. […] The value of the EBGM reflects the ratio of the number of observed reports of a drug-adverse event combination with the number expected under an assumption of independence between the drugs and events in the database. […] In order to reduce the occurrence of false positives due to age group or gender influence, the safety reports were stratified by subject age group and gender. For each drug, the AERS data were analyzed for the 18-month period following the respective approval dates for ambrisentan and bosentan: 15 Jun. 2007 to 14 Dec. 2008 for ambrisentan and 21 Nov. 2001 to 20 May 2003 for bosentan. […] This threshold is generally accepted as a signal of disproportional reporting (Szarfman, et al., “Use of screening algorithms and computer systems to efficiently signal higher-than-expected combinations of drugs and events in the US FDA's spontaneous reports database.” Drug Safety 25, 381-392 (2002)). The comparator dataset in the calculations for ambrisentan and bosentan included data for all other drugs in the AERS database.

[2] = biological target: T1, human bile salt export pump (BSEP) (Homo sapiens, UniProt O95342); assay: Inhibition of hepatic transporter BSEP, Sf9 cell membrane vesicles; assay type: biochemical
T1 construct: expressed in transfected cells; host or cells: Sf9 cell membrane vesicles
Protocol: (§1) Inhibition constants (IC50) were measured for human bile salt export pump (BSEP), sodium taurocholate cotransporting polypeptide (NTCP), multidrug resistance protein 2 (MRP2), P-glycoprotein (Pgp), breast cancer resistance protein (BCRP), organic anion-transporting polypeptide 1B1 (OATP1B1), and OATP1B3 in transfected cell-lines. Known inhibitors were used as positive controls.

[3] = biological target: T2, sodium taurocholate cotransporting polypeptide (NTCP) (Homo sapiens, UniProt Q14973); assay: Inhibition of hepatic transporter NTCP, transfected CHO cells; assay type: cell-based
T2 construct: expressed in transfected cells; host or cells: Chinese Hamster Ovary (CHO)
T2 sequence (Q14973 1-349): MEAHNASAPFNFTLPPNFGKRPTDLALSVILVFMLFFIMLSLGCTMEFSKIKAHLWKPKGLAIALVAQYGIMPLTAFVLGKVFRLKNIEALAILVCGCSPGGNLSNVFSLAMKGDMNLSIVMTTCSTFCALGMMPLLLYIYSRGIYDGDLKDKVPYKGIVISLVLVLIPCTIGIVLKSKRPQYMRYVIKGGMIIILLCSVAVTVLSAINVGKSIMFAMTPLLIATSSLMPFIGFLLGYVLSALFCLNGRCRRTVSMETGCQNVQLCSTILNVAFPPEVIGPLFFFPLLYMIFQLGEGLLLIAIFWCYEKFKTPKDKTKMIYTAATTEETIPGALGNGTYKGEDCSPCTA
Protocol: as §1

[4] = tested on: human hepatocytes; details: cited from earlier work
[5] = biological target: T3, organic anion-transporting polypeptide 1B1 (OATP1B1) (Homo sapiens, UniProt Q9Y6L6); assay: Inhibition of OATP1B1, transfected CHO cells; assay type: cell-based
T3 construct: expressed in transfected cells; host or cells: CHO
T3 sequence (Q9Y6L6 1-691): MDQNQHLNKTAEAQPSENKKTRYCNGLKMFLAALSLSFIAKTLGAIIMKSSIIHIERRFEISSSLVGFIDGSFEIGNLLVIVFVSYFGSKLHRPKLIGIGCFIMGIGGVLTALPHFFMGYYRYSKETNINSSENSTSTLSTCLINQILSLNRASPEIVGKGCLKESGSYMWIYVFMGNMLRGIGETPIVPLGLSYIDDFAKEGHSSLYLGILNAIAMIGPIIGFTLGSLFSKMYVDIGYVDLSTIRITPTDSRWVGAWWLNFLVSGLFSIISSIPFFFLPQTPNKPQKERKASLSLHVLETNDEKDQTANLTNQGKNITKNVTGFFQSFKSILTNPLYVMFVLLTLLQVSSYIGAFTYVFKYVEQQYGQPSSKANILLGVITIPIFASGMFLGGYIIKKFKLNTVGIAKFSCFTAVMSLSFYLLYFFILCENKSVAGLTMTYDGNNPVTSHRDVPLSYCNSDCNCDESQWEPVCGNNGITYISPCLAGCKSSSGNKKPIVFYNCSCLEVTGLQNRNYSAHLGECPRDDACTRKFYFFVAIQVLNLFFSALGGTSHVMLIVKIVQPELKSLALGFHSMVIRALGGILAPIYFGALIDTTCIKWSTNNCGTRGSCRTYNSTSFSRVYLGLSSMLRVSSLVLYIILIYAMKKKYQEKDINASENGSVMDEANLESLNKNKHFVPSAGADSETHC
Protocol: as §1

[6] = Blood alkaline phosphate increased
[7] = Blood bilirubin unconjugated increased

T1 sequence (O95342 whole entry): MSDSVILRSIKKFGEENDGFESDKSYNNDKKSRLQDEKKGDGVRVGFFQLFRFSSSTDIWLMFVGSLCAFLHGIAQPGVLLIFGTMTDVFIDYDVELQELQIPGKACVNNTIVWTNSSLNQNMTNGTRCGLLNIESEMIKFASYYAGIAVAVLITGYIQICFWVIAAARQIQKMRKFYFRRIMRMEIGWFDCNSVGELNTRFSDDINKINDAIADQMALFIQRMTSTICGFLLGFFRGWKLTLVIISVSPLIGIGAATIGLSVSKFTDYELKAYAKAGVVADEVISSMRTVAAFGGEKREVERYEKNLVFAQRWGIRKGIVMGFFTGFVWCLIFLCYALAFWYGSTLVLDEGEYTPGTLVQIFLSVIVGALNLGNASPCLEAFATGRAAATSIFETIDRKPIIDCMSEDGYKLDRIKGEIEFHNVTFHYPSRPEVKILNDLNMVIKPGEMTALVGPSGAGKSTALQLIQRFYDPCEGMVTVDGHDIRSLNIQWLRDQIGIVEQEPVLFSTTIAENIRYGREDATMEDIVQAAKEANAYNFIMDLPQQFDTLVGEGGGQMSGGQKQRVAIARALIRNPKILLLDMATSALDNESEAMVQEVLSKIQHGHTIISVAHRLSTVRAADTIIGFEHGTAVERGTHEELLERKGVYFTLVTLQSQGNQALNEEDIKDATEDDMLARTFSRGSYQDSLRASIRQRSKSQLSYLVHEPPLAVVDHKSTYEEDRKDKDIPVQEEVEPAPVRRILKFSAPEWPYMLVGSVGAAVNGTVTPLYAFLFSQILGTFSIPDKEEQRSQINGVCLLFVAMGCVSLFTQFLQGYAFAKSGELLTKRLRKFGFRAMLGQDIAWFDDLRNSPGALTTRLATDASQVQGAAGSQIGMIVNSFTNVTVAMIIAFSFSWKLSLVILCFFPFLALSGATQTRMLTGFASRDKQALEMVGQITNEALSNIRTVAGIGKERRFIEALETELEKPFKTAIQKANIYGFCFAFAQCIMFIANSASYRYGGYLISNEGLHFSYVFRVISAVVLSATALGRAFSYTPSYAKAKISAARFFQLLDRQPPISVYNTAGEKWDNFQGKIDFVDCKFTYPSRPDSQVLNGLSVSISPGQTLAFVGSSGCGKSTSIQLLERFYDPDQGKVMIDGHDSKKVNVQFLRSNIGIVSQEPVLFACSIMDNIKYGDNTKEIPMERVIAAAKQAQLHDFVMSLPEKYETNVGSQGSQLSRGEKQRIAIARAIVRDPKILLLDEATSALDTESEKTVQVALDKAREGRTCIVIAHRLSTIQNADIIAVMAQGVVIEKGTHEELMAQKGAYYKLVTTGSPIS

SMILES: COC(c1ccccc1)(c1ccccc1)[C@H](Oc1nc(C)cc(C)n1)C(=O)O [Ambrisentan, (25)-2-[(4,6-dimethylpyrimidin-2-yl)oxy]-3-methoxy-3,3-diphenylpropanoic acid]
- Count ([1]; ALT increased): 3
- EBGM ([1]; ALT increased): 1.55
- Count ([1]; AST increased): 3
- EBGM ([1]; AST increased): 1.63
- Count ([1]; Ascites): 2
- EBGM ([1]; Ascites): 1.80
- Count ([1]; Bilirubin conjugated increased): 0
- Count [1, 6]: 1
- EBGM [1, 6]: 0.86
- Count ([1]; Blood bilirubin increased): 0
- Count [1, 7]: 0
- Count ([1]; Hepatic congestion): 0
- Count ([1]; Hepatic encephalopathy): 0
- Count ([1]; Hepatic enzyme increased): 3
- EBGM ([1]; Hepatic enzyme increased): 1.67
- Count ([1]; Hepatic failure): 0
- Count ([1]; Hepatic function abnormal): 0
- Count ([1]; Hepatic infarction): 0
- Count ([1]; Hepatic necrosis): 0
- Count ([1]; Hepatic steatosis): 1
- EBGM ([1]; Hepatic steatosis): 1.06
- Count ([1]; Hepatitis acute): 0
- Count ([1]; Hepatitis): 1
- EBGM ([1]; Hepatitis): 0.89
- Count ([1]; Hepatomegaly): 0
- Count ([1]; Hepatosplenomegaly): 0
- Count ([1]; INR increased): 1
- EBGM ([1]; INR increased): 0.78
- Count ([1]; Liver disorder): 2
- EBGM ([1]; Liver disorder): 1.43
- Count ([1]; Liver function test abnormal): 10
- EBGM ([1]; Liver function test abnormal): 6.11
- Count ([1]; Prothrombin time prolonged): 1
- EBGM ([1]; Prothrombin time prolonged): 1.29
- Count ([1]; Spider naevus): 0
- Count ([1]; Transaminases increased): 2
- EBGM ([1]; Transaminases increased): 1.96
- EB05 ([1]; liver function test abnormal): 3.5
- effect on BSEP [2]: no measurable effect
- effect on NTCP [3]: no measurable effect
- effect on hepatobiliary transporter activity [4]: less potent
- IC50 [5]: 47 ± 21.3 µM

- Count ([1]; Ascites): 8
- EBGM ([1]; Ascites): 3.60
- Count ([1]; Bilirubin conjugated increased): 5
- EBGM ([1]; Bilirubin conjugated increased): 13.91
- Count [1, 6]: 46
- EBGM [1, 6]: 18.79
- Count ([1]; Blood bilirubin increased): 37
- EBGM ([1]; Blood bilirubin increased): 18.75
- Count [1, 7]: 2
- EBGM [1, 7]: 3.28
- Count ([1]; Hepatic congestion): 5
- EBGM ([1]; Hepatic congestion): 13.18
- Count ([1]; Hepatic encephalopathy): 1
- EBGM ([1]; Hepatic encephalopathy): 1.00
- Count ([1]; Hepatic enzyme increased): 0
- Count ([1]; Hepatic failure): 3
- EBGM ([1]; Hepatic failure): 1.07
- Count ([1]; Hepatic function abnormal): 2
- EBGM ([1]; Hepatic function abnormal): 0.91
- Count ([1]; Hepatic infarction): 1
- EBGM ([1]; Hepatic infarction): 1.44
- Count ([1]; Hepatic steatosis): 0
- Count ([1]; Hepatitis acute): 1
- EBGM ([1]; Hepatitis acute): 1.04
- Count ([1]; Hepatitis): 5
- EBGM ([1]; Hepatitis): 1.63
- Count ([1]; Hepatomegaly): 1
- EBGM ([1]; Hepatomegaly): 0.79
- Count ([1]; Hepatosplenomegaly): 2
- EBGM ([1]; Hepatosplenomegaly): 2.09
- Count ([1]; INR increased): 9
- EBGM ([1]; INR increased): 3.08
- Count ([1]; Liver disorder): 1
- EBGM ([1]; Liver disorder): 0.56
- Count ([1]; Liver function test abnormal): 38
- EBGM ([1]; Liver function test abnormal): 9.59
- Count ([1]; Prothrombin time prolonged): 2
- EBGM ([1]; Prothrombin time prolonged): 1.22
- Count ([1]; Spider naevus): 1
- EBGM ([1]; Spider naevus): 1.46
- Count ([1]; Transaminases increased): 5
- EBGM ([1]; Transaminases increased): 3.58
- EB05 ([1]; blood alkaline phosphate increased): 14.6
- EB05 ([1]; liver function test abnormal): 6.9
- effect on NTCP [3]: inhibition was observed
- IC50 ([3]; NTCP): 36.5 µM
- IC50 [5]: 5 ± 2 µM
SMILES: COc1ccccc1Oc1c(NS(=O)(=O)c2ccc(C(C)(C)C)cc2)nc(-c2ncccn2)nc1OCCO [Bosentan]
- Count ([1]; ALT increased): 57
- EBGM ([1]; ALT increased): 11.57
- Count ([1]; AST increased): 60
- EBGM ([1]; AST increased): 12.52
- Count ([1]; Hepatic necrosis): 1
- EBGM ([1]; Hepatic necrosis): 0.94
- effect on BSEP [2]: inhibition was observed
- IC50 ([2]; BSEP): 54.4 µM
- effect on hepatobiliary transporter activity [4]: decreased transporter activity to the greatest extent
